# From ChEMBL document CHEMBL1127534, “2-Alkynyl derivatives of adenosine-5'-N-ethyluronamide: selective A2 adenosine receptor agonists with potent inhibitory activity on platelet aggregation” (J Med Chem, 1994)
# Legend:
# Adenosine receptor A1 [1] = target: T1, Adenosine receptor A1 (Rattus norvegicus, UniProt P25099); assay: biochemical
# T1 sequence (P25099 whole entry): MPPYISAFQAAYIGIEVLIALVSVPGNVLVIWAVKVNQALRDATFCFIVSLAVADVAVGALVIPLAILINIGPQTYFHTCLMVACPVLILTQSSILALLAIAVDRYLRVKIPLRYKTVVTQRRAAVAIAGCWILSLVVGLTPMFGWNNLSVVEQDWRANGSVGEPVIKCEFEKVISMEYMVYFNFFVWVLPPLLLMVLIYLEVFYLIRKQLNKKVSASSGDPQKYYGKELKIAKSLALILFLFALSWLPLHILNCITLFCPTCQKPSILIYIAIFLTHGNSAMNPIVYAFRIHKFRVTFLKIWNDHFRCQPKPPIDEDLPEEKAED
# Description: Affinity for adenosine A1 receptor assayed in a competition assay in rat brain using [3H]-CHA as radioligand
# Adenosine A2 receptor [2] = target: T2, Adenosine A2 receptor (Rattus norvegicus, UniProt P29276+P30543)
# Description: Affinity for the adenosine A2 receptor was evaluated in a competition assay in rat striatum using [3H]-CGS- 21680 as radioligand
# Adenosine receptor A1 [3] = target: T1, Adenosine receptor A1; assay: Negative chronotropic activity via A1 Adenosine receptor was tested in spontaneously beating rat atria; format: functional
# [4] = Hydrophobicity index (k') (RP-HPLC); format: ADME
# Adenosine A2 receptor [5] = target: T2, Adenosine A2 receptor; remark: listed apart in the source
# Description: Negative chronotropic activity via A2 Adenosine receptor was tested monitoring vasodilation in rat aorta
# Adenosine A2 receptor [6] = target: T2, Adenosine A2 receptor; assay: Vasorelaxant activity for A2 Adenosine receptor as vasodilation in rat aorta
# Oryctolagus cuniculus = organism: Oryctolagus cuniculus; assay: Antiaggregatory effect was evaluated on rabbit platelet aggregation induced by ADP.; format: functional
# Adenosine receptor A1 [7] = target: T1, Adenosine receptor A1; assay: Negative chronotropic activity for A1 Adenosine receptor in spontaneously beating rat atria; format: functional
Structure (SMILES),Ki (Adenosine receptor A1 [1]),Ki (Adenosine A2 receptor [2]),EC50 (Adenosine receptor A1 [3]),k' [4],EC50 (Adenosine A2 receptor [5]),EC50 (Adenosine A2 receptor [6]),Ratio (Oryctolagus cuniculus),EC50 (Adenosine receptor A1 [7])
CCNC(=O)[C@H]1O[C@@H](n2cnc3c(N)nc(C#CCCCO)nc32)[C@H](O)[C@@H]1O,99.9 nM,11.3 nM,> 10000 nM,0.22,300 nM,–,–,–
CCNC(=O)[C@H]1O[C@@H](n2cnc3c(N)nc(C#CCCO)nc32)[C@H](O)[C@@H]1O,47.3 nM,10.8 nM,> 10000 nM,0.2,59.4 nM,–,–,–
CCNC(=O)[C@H]1O[C@@H](n2cnc3c(N)nc(C#CC4=CCCCC4)nc32)[C@H](O)[C@@H]1O,3300 nM,61.3 nM,–,3.9,–,3030 nM,0.03,> 10000 nM
C=C(C)C#Cc1nc(N)c2ncn([C@@H]3O[C@H](C(=O)NCC)[C@@H](O)[C@H]3O)c2n1,167 nM,27.3 nM,> 10000 nM,1.27,1200 nM,–,–,–
CCNC(=O)[C@H]1O[C@@H](n2cnc3c(N)nc(C#CCCOC4CCCCO4)nc32)[C@H](O)[C@@H]1O (stereo not given in full),267 nM,5 nM,–,1.32,–,115 nM,0.3,> 10000 nM
C#Cc1nc(N)c2ncn([C@@H]3O[C@H](C(=O)NCC)[C@@H](O)[C@H]3O)c2n1,35.4 nM,57.8 nM,167 nM,0.25,440 nM,–,–,–
CCNC(=O)[C@H]1O[C@@H](n2cnc3c(N)nc(C#CCN(C)C)nc32)[C@H](O)[C@@H]1O,27.9 nM,2.3 nM,332 nM,0.37,140 nM,–,–,–
CCNC(=O)[C@H]1O[C@@H](n2cnc3c(N)nc(C#CCO)nc32)[C@H](O)[C@@H]1O,14.1 nM,9.1 nM,84.2 nM,0.17,367 nM,–,–,–
CCNC(=O)[C@H]1O[C@@H](n2cnc3c(N)nc(C#CC(OCC)OCC)nc32)[C@H](O)[C@@H]1O,656 nM,441 nM,> 10000 nM,1.63,382 nM,–,–,–
CCNC(=O)[C@H]1O[C@@H](n2cnc3c(N)nc(C#CC4(N)CCCCC4)nc32)[C@H](O)[C@@H]1O,398 nM,39.4 nM,–,0.6,–,779 nM,0.6,> 10000 nM
OC[C@H]1O[C@@H](n2cnc3c(NC4CCCC4)nc(Cl)nc32)[C@H](O)[C@@H]1O,–,–,–,2.76,–,–,–,–
CCCCC#Cc1nc(N)c2ncn([C@@H]3O[C@H](C(=O)NCC)[C@@H](O)[C@H]3O)c2n1,130 nM,2.2 nM,> 10000 nM,2.57,596 nM,–,–,–
CCNC(=O)[C@H]1O[C@@H](n2cnc3c(N)ncnc32)[C@H](O)[C@@H]1O [NECA],–,–,–,0.19,–,–,–,–
